These results are taken from ChEMBL document CHEMBL5346971, “Discovery of the First Irreversible HDAC6 Isoform Selective Inhibitor with Potent Anti-Multiple Myeloma Activity” (J Med Chem, 2023).

Data set [1] in a line: Half-life in mouse liver microsomes in presence of NADPH by LC-MS/MS analysis. In kind it is ADME, Microsome.
For data set [2], the target named is T1, Class 1 histone deacetylase (Homo sapiens) (UniProt Q13547+O15379+Q92769+Q9BY41). Briefly: Inhibition of class 1 HDAC in human A549 cells assessed as acetyl histone H4 level at 2 uM incubated for 5 hrs by western blot analysis relative to control. The data set is classed as cell-based. A general note: Immunoblotting shows a protein as a band on a membrane.

Data set [3] addresses T2, Protein deacetylase HDAC6 (Homo sapiens) (UniProt Q9UBN7).
T2 sequence (whole entry): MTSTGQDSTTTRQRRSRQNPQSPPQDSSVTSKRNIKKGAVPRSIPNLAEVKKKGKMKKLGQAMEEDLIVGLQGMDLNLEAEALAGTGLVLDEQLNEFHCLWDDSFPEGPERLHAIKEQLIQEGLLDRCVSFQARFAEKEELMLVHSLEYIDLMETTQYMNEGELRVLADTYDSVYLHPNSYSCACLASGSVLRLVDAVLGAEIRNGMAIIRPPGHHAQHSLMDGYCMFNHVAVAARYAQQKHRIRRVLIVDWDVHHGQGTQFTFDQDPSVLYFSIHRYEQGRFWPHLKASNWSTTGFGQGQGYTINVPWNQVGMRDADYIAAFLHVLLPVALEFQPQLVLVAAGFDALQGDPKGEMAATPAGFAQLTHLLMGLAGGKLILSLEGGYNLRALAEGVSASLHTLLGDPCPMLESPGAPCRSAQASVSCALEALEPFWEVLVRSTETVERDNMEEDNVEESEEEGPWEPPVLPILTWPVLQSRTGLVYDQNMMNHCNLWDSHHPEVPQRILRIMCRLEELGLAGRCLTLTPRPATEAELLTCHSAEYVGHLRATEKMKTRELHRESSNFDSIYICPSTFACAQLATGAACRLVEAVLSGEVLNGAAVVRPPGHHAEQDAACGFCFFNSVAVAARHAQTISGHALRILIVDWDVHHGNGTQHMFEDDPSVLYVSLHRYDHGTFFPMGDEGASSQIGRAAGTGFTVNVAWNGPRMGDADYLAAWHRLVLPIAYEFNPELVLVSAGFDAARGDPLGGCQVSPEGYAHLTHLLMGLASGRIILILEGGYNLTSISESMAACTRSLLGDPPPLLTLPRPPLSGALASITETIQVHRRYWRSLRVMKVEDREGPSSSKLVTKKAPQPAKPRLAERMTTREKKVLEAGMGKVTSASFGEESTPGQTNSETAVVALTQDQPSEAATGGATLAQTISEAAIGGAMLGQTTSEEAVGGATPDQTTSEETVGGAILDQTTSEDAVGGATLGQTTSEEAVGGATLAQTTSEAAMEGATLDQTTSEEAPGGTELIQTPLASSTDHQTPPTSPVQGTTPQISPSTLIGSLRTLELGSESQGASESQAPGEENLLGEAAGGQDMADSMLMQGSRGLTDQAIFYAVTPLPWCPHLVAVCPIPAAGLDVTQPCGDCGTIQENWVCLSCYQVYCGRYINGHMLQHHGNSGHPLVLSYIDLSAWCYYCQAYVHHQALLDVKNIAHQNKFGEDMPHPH
Briefly: Irreversible inhibition of HDAC6 in human A549 cells assessed as acetyl alpha-tubulin level at 0.4 uM incubated for 5 hrs followed by drug wash-out and measured immediately after drug wash-out by western blot analysis relative to control. The data set is classed as cell-based.

For data set [4], the target named is T1, Class 1 histone deacetylase (Homo sapiens). Briefly: Irreversible inhibition of class 1 HDAC in human A549 cells assessed as acetyl histone H3 level at 0.4 uM incubated for 5 hrs followed by drug wash-out for 1 hr by western blot analysis relative to control. The data set is classed as cell-based.
Data set [5] deals with Histone deacetylase 3/Nuclear receptor corepressor 2 (HDAC3/NCoR2) (Homo sapiens, UniProt O15379). As to the kind of experiment: Inhibition of C-terminal His-tagged human HDAC3 (1 to 428 residues)/N-terminal GST-tagged human NCOR2 (395 to 489 residues) expressed in baculovirus-infected Sf9 cells using Boc-Lys(acetyI)-AMC as substrate preincubated with enzyme for 1 hr followed by substrate addition and measured after 30 mins by fluorescence based analysis.

Data set [6] can be described thus: Effect on HDAC6 protein expression in human A549 cells assessed as change in HDAC6 protein expression at 0.4 uM incubated for 5 hrs followed by drug wash-out for 1 hr by western blot analysis relative to control. In kind it is functional.
A short description of data set [7]: Effect on HDAC6 protein expression in human A549 cells assessed as change in HDAC6 protein expression at 0.4 uM incubated for 5 hrs followed by drug wash-out for 24 hrs by western blot analysis relative to control. In kind it is functional.
The nature of data set [8]: Effect on HDAC6 protein expression in human A549 cells assessed as change in HDAC6 protein expression at 0.4 uM incubated for 5 hrs followed by drug wash-out and measured following drug wash-out by western blot analysis relative to control. In kind it is functional.
A short description of data set [9]: Intrinsic clearance in mouse liver microsomes in presence of NADPH by LC-MS/MS analysis. As to conditions: read-out: CLH. In kind it is ADME, Microsome.
The subject of data set [10] is RPMI-8226. Briefly: Antitumor activity against human RPMI-8226 cells xenografted in NCG mouse assessed as T/C ratio at 10 ug administered intratumorally every 2 days by vernier caliper analysis. In kind it is functional. As to conditions: dose 10 µg; route it(Intratumoral).
Data set [11] relates to RPMI-8226. Briefly: Induction of cell cycle arrest in human RPMI-8226 cells assessed as proportion of cells at G1 phase at 0.1 uM incubated for 24 hrs by PI staining based flow cytometry (reference value: 33.5%). The data set is classed as functional.
Data set [12] concerns the target T1, Class 1 histone deacetylase (Homo sapiens). Briefly: Irreversible inhibition of class 1 HDAC in human A549 cells assessed as acetyl histone H4 level at 0.4 uM incubated for 5 hrs followed by drug wash-out for 24 hrs by western blot analysis relative to control. The data set is classed as cell-based.
Data set [13] addresses T2, Protein deacetylase HDAC6 (Homo sapiens). Briefly: Irreversible inhibition of HDAC6 in human A549 cells assessed as acetyl alpha-tubulin level at 0.4 uM incubated for 5 hrs followed by drug wash-out for 1 hr by western blot analysis relative to control. The data set is classed as cell-based.
Data set [14] concerns RPMI-8226. As to the kind of experiment: Induction of apoptosis in human RPMI-8226 cells assessed as proportion of viable cells at 0.1 uM incubated for 24 hrs by AnnexinV-FITC/PI staining based flow cytometry (reference value: 84.71%). The data set is classed as functional, cell-based. For orientation: In flow cytometry, cells or beads pass a laser one at a time.
The species entered for a further data set is Homo sapiens. As to the kind of experiment: Selectivity index, ratio of IC50 for inhibition of C-terminal FLAG-tagged human full length recombinant HDAC2 (1 to 488 residues) expressed in Sf9 cells to IC50 for inhibition of N-terminal GST-tagged human full length recombinant HDAC6 (1 to 1215 residues) expressed in Sf9 cells.

Calls of active or inactive are those of the source. No cut-off for these calls is given here.

T1 sequence (O15379 whole entry, looked up): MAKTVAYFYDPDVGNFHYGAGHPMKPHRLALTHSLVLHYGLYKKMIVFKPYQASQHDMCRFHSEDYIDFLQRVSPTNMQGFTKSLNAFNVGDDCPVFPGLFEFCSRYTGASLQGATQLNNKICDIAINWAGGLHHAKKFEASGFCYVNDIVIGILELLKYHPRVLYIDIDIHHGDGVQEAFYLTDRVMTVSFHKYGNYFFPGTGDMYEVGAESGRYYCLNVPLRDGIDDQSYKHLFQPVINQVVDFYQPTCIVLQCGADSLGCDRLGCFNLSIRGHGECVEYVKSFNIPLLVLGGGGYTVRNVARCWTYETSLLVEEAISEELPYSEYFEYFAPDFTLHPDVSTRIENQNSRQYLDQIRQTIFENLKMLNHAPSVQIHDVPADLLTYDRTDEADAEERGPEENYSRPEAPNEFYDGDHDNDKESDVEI
T1 sequence (Q13547 whole entry, looked up): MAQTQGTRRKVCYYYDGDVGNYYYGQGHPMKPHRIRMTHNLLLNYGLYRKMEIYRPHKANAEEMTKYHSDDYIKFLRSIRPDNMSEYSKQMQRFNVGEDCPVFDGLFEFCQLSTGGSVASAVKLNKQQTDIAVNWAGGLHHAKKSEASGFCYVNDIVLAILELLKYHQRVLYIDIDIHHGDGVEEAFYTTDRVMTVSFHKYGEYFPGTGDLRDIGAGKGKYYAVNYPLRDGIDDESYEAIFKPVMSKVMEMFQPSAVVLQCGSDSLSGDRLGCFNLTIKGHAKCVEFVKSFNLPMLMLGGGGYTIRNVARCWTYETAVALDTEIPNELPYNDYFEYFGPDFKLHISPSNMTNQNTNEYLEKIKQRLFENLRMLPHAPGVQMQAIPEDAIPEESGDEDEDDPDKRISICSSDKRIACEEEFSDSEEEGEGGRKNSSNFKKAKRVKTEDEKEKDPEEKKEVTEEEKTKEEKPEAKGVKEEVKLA
T1 sequence (Q92769 whole entry, looked up): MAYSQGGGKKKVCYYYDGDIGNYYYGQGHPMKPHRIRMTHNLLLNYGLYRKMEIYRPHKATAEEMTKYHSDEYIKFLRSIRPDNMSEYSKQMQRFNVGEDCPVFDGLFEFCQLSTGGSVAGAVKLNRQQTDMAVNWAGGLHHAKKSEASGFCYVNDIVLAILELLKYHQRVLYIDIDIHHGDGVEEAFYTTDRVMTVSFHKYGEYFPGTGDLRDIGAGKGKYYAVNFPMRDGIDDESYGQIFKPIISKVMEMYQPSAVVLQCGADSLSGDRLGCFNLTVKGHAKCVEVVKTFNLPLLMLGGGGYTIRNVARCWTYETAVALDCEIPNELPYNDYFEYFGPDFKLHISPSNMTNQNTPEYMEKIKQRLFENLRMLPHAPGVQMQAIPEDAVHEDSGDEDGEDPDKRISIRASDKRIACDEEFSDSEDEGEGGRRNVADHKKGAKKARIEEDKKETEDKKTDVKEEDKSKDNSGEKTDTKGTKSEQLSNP
T1 sequence (Q9BY41 whole entry, looked up): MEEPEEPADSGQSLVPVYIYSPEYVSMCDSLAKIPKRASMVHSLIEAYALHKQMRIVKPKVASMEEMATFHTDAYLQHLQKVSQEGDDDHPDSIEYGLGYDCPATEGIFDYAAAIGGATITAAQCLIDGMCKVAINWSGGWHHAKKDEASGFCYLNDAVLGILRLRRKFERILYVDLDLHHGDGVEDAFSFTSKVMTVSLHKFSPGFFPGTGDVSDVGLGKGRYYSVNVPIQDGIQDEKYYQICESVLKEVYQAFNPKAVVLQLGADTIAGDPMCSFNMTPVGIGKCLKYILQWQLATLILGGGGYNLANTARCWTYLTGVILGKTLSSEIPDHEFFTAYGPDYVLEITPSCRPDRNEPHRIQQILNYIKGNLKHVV
Histone deacetylase 3/Nuclear receptor corepressor 2 (HDAC3/NCoR2), sequence (O15379 whole entry, the tested form may be a part): as the sequence (O15379 whole entry, looked up) above
Histone deacetylase 3/Nuclear receptor corepressor 2 (HDAC3/NCoR2), sequence (Q9Y618 whole entry, further chain, the tested form may be a part): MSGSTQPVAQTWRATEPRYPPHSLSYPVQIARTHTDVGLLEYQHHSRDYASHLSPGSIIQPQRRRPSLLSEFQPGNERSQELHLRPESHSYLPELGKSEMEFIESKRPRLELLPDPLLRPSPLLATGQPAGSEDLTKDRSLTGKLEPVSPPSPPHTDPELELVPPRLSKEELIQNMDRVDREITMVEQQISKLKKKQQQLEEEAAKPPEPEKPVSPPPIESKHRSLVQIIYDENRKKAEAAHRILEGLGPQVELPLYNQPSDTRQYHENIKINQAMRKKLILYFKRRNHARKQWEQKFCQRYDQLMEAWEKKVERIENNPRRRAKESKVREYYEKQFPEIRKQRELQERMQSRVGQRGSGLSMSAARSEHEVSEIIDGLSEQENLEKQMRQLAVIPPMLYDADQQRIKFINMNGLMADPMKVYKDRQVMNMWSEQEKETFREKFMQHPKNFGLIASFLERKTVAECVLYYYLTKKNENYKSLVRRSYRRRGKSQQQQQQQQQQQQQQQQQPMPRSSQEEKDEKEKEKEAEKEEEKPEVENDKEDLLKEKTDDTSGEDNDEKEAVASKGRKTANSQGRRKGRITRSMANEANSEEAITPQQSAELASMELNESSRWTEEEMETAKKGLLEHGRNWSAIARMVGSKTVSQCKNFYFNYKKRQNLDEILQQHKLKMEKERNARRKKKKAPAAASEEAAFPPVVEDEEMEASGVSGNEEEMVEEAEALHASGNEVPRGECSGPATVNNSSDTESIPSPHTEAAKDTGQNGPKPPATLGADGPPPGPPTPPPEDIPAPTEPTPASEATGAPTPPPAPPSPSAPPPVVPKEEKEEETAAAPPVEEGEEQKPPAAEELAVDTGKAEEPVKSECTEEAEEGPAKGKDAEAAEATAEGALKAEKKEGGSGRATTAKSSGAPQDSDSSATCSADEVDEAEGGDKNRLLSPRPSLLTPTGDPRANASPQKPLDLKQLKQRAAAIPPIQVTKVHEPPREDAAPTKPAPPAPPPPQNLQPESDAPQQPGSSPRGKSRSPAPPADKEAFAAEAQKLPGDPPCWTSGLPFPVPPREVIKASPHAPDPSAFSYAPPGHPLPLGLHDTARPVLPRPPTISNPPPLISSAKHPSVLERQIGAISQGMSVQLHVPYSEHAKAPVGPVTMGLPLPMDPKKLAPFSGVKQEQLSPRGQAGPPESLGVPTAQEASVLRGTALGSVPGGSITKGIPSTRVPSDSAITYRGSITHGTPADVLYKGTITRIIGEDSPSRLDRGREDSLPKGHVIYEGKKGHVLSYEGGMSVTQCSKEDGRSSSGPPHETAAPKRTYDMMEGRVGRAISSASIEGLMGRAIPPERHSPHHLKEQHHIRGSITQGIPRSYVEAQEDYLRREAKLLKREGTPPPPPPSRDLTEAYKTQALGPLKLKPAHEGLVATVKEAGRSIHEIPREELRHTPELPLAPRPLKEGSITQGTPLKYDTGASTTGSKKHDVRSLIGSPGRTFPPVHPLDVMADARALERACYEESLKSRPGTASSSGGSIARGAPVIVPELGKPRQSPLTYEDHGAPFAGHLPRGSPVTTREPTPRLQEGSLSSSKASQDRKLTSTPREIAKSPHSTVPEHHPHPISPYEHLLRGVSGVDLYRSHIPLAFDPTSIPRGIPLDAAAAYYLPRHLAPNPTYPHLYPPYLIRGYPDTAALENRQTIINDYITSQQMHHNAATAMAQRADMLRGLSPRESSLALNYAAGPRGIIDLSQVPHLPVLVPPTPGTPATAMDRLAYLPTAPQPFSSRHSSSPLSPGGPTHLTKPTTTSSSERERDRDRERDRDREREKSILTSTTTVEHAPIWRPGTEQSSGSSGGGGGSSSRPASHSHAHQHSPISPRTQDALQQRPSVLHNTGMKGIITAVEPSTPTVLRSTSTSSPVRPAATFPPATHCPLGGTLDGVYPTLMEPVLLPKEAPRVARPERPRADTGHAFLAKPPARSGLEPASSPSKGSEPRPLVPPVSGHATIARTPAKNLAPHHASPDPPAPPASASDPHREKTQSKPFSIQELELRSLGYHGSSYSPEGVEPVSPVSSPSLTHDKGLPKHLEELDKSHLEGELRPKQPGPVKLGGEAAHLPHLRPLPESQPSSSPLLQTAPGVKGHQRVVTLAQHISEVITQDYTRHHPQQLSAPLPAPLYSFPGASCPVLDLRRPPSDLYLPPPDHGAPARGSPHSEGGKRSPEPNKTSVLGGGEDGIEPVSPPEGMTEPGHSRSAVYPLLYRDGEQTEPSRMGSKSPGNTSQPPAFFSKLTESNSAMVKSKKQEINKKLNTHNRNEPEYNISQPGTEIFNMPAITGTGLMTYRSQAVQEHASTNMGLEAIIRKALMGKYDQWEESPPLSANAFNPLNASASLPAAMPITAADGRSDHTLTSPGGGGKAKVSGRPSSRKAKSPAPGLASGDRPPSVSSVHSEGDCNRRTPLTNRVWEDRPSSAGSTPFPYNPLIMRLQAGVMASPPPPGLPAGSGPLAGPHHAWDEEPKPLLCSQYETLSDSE

The term half-life denotes how long it takes for the measured level to halve. Usually IC50 stands for the midpoint of a concentration-inhibition curve. Read a high IC50 as a need for much substance. The T/C is the ratio of treated to control. Consider `O=C(NO)c1ccc(COc2no[n+]([O-])c2S(=O)(=O)c2ccccc2)cc1`, for which, in [1], the half-life was determined as 1.8 min. Further, the fold change (FC) in data set [2] amounted to 1.6; in data set [3], 5.2; in data set [4] it was 1.2; in data set [6], 1.2; in data set [7], 1.3; in data set [8], 1. The fold change (FC) stood at 0.6 in [12] and 5.3 in [13]. Moreover, the concentration for half-maximal inhibition (IC50) in data set [5] came to 8.2 µM. Further, the CLint scaled in [9] was 2990 mL/min/kg. Further, in the data set with RPMI-8226 [10], the T/C is given as 55%. The Activity with RPMI-8226 [11] amounted to 28.8%. Also, in the data set with RPMI-8226 [14], the result was Active. The Ratio IC50 in the data set filed under Homo sapiens is 45.5.
